What was measured:
ORYSAT (Rice, Tebonnet) [1] = test: Preemergence herbicidal evaluation; format: in vivo, Oryza sativa, (L.) Tebonnet; conditions: rated 4-5 weeks after treatment
[2] = tested on: ECHCG (Echinochloa crus-galli); test: Postemergence herbicidal evaluation; format: in vivo, (L.) Beau; conditions: postemergence
In short: (§1)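 Visual 0–9 injury scores versus control plants, covering stand, vigour, malformation, size, chlorosis and general appearance, taken four to five weeks post-spray and averaged over replicate tests. Plants were sprayed at roughly two weeks old and held on greenhouse benches.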

[3] = tested on: CASOB (Cassia obtusifolia); test: Preemergence herbicidal evaluation; format: in vivo, L.; conditions: rated 4-5 weeks after treatment
In short: (§2)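 Steps: mix seeds with potting soil; plant on ~1 inch soil per cup; spray compound in aqueous acetone; hold on greenhouse benches with routine watering; rate 0–9 visually against control at 4–5 weeks.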

[4] = tested on: CHEAL (Chenopodium album); test: Preemergence herbicidal evaluation; format: in vivo, L.; conditions: rated 4-5 weeks after treatment
In short: as §2

[5] = tested on: AMBEL (Ambrosia artemisifolia); test: Preemergence herbicidal evaluation; format: in vivo, L.; conditions: rated 4-5 weeks after treatment
In short: as §2

[6] = tested on: GLXMAW (Soybean, Williams); test: Postemergence herbicidal evaluation; format: in vivo, Glycine max, (L.) Merr. cv Williams; conditions: postemergence
In short: as §1

[7] = tested on: ABUTH (Abutilon theophrasti); test: Postemergence herbicidal evaluation; format: in vivo, Medic.; conditions: postemergence
In short: as §1

[8] = tested on: ABUTH (Abutilon theophrasti); test: Preemergence herbicidal evaluation; format: in vivo, Medic.; conditions: rated 4-5 weeks after treatment
ORYSAT (Rice, Tebonnet) [9] = test: Postemergence herbicidal evaluation; format: in vivo, Oryza sativa, (L.) Tebonnet; conditions: postemergence
In short: as §1

ZEAMX (Corn, Field) = test: Postemergence herbicidal evaluation; format: in vivo, Zea mays, L.; conditions: postemergence
In short: as §1

GALAP (Galium aparine) [10] = test: Preemergence herbicidal evaluation; format: in vivo; conditions: rated 4-5 weeks after treatment
In short: as §2

[11] = tested on: SAGPY (Sagittaria pygmaea); test: Flooded paddy, preemergence weed control; format: in vivo, L.; conditions: rated 3-4 weeks after treatment, 0-9 rating scale
In short: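 Under paddy conditions, seeds or vegetative propagules go into the top 0.5 cm of silt loam; the soil is then flooded to 1.5–3 cm and kept so. Treated pots stay in a greenhouse; response is rated 0-9 visually versus control.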

[12] = tested on: IPOHE (Ipomoea hederacea); test: Preemergence herbicidal evaluation; format: in vivo, (L.) Jacq.; conditions: rated 4-5 weeks after treatment
[13] = tested on: CASOB (Cassia obtusifolia); test: Postemergence herbicidal evaluation; format: in vivo, L.; conditions: postemergence
In short: as §1

[14] = tested on: CHEAL (Chenopodium album); test: Postemergence herbicidal evaluation; format: in vivo, L.; conditions: postemergence
In short: as §1

[15] = tested on: AMBEL (Ambrosia artemisifolia); test: Postemergence herbicidal evaluation; format: in vivo, L.; conditions: postemergence
In short: as §1

ORYSAT (Rice, Tebonnet) [16] = test: Flooded paddy, post-transplant rice tolerance; format: in vivo, Oryza sativa, (L.) Tebonnet; conditions: flooded paddy, post-transplant rice, rated 3-4 weeks after treatment, 0-9 rating scale
In short: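 Steps: transplant two ten-day-old seedlings into silt loam; flood to 1.5-3 cm above soil; apply herbicide post-transplant; maintain water on greenhouse benches; rate stand, vigor, malformation, size and chlorosis on a 0-9 visual scale versus control.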

[17] = tested on: TRZAWR (Wheat, Winter, cv Riband); test: Preemergence herbicidal evaluation; format: in vivo, Triticum aestivum; conditions: rated 4-5 weeks after treatment
In short: as §2

GALAP (Galium aparine) [18] = test: Postemergence herbicidal evaluation; format: in vivo; conditions: postemergence
In short: as §1

CC1=CC(C)(C)OC(c2nsc3ccc(-n4c(=O)cc(C(F)(F)F)n(C)c4=O)cc23)C1 (stereo not drawn) [Compound 65, 3-[3-(3,6-dihydro-4,6,6-trimethyl-2H-pyran-2-yl)-1,2-benzisothiazol-5-yl]-1-methyl-6-(trifluoromethyl)uracil]
Preemergence herbicidal rating ORYSAT (ORYSAT (Rice, Tebonnet) [1]; Rate 0.0620 kg/ha): 7.0 | Preemergence herbicidal rating ORYSAT (ORYSAT (Rice, Tebonnet) [1]; Rate 0.1250 kg/ha): 7.0 | Preemergence herbicidal rating ORYSAT (ORYSAT (Rice, Tebonnet) [1]; Rate 0.2500 kg/ha): 9.0 | ECHCG herbicidal rating ([2]; rate 0.0320 kg/ha): 4.0 | ECHCG herbicidal rating ([2]; rate 0.0620 kg/ha): 5.0 | Preemergence herbicidal rating CASOB ([3]; Rate 0.0620 kg/ha): 0.0 | Preemergence herbicidal rating CASOB ([3]; Rate 0.1250 kg/ha): 0.0 | Preemergence herbicidal rating CASOB ([3]; Rate 0.2500 kg/ha): 0.0 | Preemergence herbicidal rating CHEAL ([4]; Rate 0.0620 kg/ha): 9.0 | Preemergence herbicidal rating CHEAL ([4]; Rate 0.1250 kg/ha): 9.0 | Preemergence herbicidal rating CHEAL ([4]; Rate 0.2500 kg/ha): 9.0 | Preemergence herbicidal rating AMBEL ([5]; Rate 0.0620 kg/ha): 8.0 | Preemergence herbicidal rating AMBEL ([5]; Rate 0.1250 kg/ha): 9.0 | Preemergence herbicidal rating AMBEL ([5]; Rate 0.2500 kg/ha): 9.0 | GLXMAW herbicidal rating ([6]; rate 0.0320 kg/ha): 5.5 | GLXMAW herbicidal rating ([6]; rate 0.0620 kg/ha): 7.0 | ABUTH herbicidal rating ([7]; rate 0.0320 kg/ha): 9.0 | ABUTH herbicidal rating ([7]; rate 0.0620 kg/ha): 9.0 | Preemergence herbicidal rating ABUTH ([8]; Rate 0.0620 kg/ha): 9.0 | Preemergence herbicidal rating ABUTH ([8]; Rate 0.1250 kg/ha): 9.0 | Preemergence herbicidal rating ABUTH ([8]; Rate 0.2500 kg/ha): 9.0 | ORYSAT herbicidal rating (ORYSAT (Rice, Tebonnet) [9]; rate 0.0320 kg/ha): 4.0 | ORYSAT herbicidal rating (ORYSAT (Rice, Tebonnet) [9]; rate 0.0620 kg/ha): 4.5 | ZEAMX herbicidal rating (ZEAMX (Corn, Field); rate 0.0320 kg/ha): 5.0 | ZEAMX herbicidal rating (ZEAMX (Corn, Field); rate 0.0620 kg/ha): 5.5 | Preemergence herbicidal rating GALAP (GALAP (Galium aparine) [10]; Rate 0.0620 kg/ha): 5.0 | Preemergence herbicidal rating GALAP (GALAP (Galium aparine) [10]; Rate 0.1250 kg/ha): 7.0 | Preemergence herbicidal rating GALAP (GALAP (Galium aparine) [10]; Rate 0.2500 kg/ha): 7.0 | herbicidal rating, SAGPY ([11]; rate 0.0080 kg/ha): 0.0 | herbicidal rating, SAGPY ([11]; rate 0.0320 kg/ha): 0.0 | herbicidal rating, SAGPY ([11]; rate 0.1250 kg/ha): 0.0 | Preemergence herbicidal rating IPOHE ([12]; Rate 0.0620 kg/ha): 0.0 | Preemergence herbicidal rating IPOHE ([12]; Rate 0.1250 kg/ha): 3.0 | Preemergence herbicidal rating IPOHE ([12]; Rate 0.2500 kg/ha): 9.0 | CASOB herbicidal rating ([13]; rate 0.0320 kg/ha): 4.0 | CASOB herbicidal rating ([13]; rate 0.0620 kg/ha): 5.0 | CHEAL herbicidal rating ([14]; rate 0.0320 kg/ha): 7.0 | CHEAL herbicidal rating ([14]; rate 0.0620 kg/ha): 9.0 | AMBEL herbicidal rating ([15]; rate 0.0320 kg/ha): 9.0 | AMBEL herbicidal rating ([15]; rate 0.0620 kg/ha): 9.0 | herbicidal rating, ORYSAT (rice tolerance) (ORYSAT (Rice, Tebonnet) [16]; rate 0.0080 kg/ha): 0.0 | herbicidal rating, ORYSAT (rice tolerance) (ORYSAT (Rice, Tebonnet) [16]; rate 0.0320 kg/ha): 0.0 | herbicidal rating, ORYSAT (rice tolerance) (ORYSAT (Rice, Tebonnet) [16]; rate 0.1250 kg/ha): 0.0 | Preemergence herbicidal rating TRZAWR ([17]; Rate 0.0620 kg/ha): 5.0 | Preemergence herbicidal rating TRZAWR ([17]; Rate 0.1250 kg/ha): 7.0 | Preemergence herbicidal rating TRZAWR ([17]; Rate 0.2500 kg/ha): 9.0 | GALAP herbicidal rating (GALAP (Galium aparine) [18]; rate 0.0320 kg/ha): 5.0 | GALAP herbicidal rating (GALAP (Galium aparine) [18]; rate 0.0620 kg/ha): 6.0

— US6706663B2, “Herbicidal 3-heterocyclic substituted benzisothiazole and benzisoxazole compounds” (Wyeth, priority 2000, dated 2004)
